Measured values from the NIST ThermoML archive (doi:10.1016/j.fluid.2014.06.024).
± gives the expanded uncertainty stated by the source.

Assay: molar heat capacity at constant pressure; xn = mol fraction of the nth substance listed
Conditions: 101 kPa, Liquid, Small sample (50 mg) DSC

Cc1ccccc1C [1,2-dimethylbenzene] + C1CCOCC1
molar heat capacity at constant pressure [J/K/mol]
Conditions	298.15 K	303.15 K	308.15 K
x2 = 0.0918	184.41 ± 2.9	186 ± 2.9	187.56 ± 2.9
x2 = 0.1317	183.03 ± 2.8	184.64 ± 2.9	186.23 ± 2.9
x2 = 0.1765	181.48 ± 2.8	183.1 ± 2.8	184.72 ± 2.9
x2 = 0.2108	180.29 ± 2.8	181.92 ± 2.8	183.55 ± 2.8
x2 = 0.2543	178.76 ± 2.8	180.4 ± 2.8	182.06 ± 2.8
x2 = 0.2876	177.59 ± 2.8	179.23 ± 2.8	180.91 ± 2.8
x2 = 0.3105	176.77 ± 2.7	178.42 ± 2.8	180.11 ± 2.8
x2 = 0.3651	174.81 ± 2.7	176.47 ± 2.7	178.18 ± 2.8
x2 = 0.4187	172.86 ± 2.7	174.53 ± 2.7	176.26 ± 2.7
x2 = 0.4498	171.71 ± 2.7	173.38 ± 2.7	175.13 ± 2.7
x2 = 0.491	170.18 ± 2.6	171.85 ± 2.7	173.62 ± 2.7
x2 = 0.5217	169.03 ± 2.6	170.7 ± 2.6	172.47 ± 2.7
x2 = 0.5518	167.88 ± 2.6	169.56 ± 2.6	171.34 ± 2.6
x2 = 0.5871	166.53 ± 2.6	168.2 ± 2.6	170 ± 2.6
x2 = 0.6218	165.19 ± 2.6	166.86 ± 2.6	168.66 ± 2.6
x2 = 0.6617	163.62 ± 2.5	165.29 ± 2.6	167.1 ± 2.6
x2 = 0.6901	162.5 ± 2.5	164.16 ± 2.5	165.98 ± 2.6
x2 = 0.7219	161.23 ± 2.5	162.89 ± 2.5	164.71 ± 2.5
x2 = 0.7561	159.85 ± 2.5	161.5 ± 2.5	163.33 ± 2.5
x2 = 0.7918	158.39 ± 2.5	160.04 ± 2.5	161.87 ± 2.5
x2 = 0.8231	157.11 ± 2.4	158.75 ± 2.5	160.58 ± 2.5
x2 = 0.8651	155.36 ± 2.4	156.99 ± 2.4	158.83 ± 2.5
x2 = 0.8902	154.31 ± 2.4	155.93 ± 2.4	157.78 ± 2.4
x2 = 0.9234	152.9 ± 2.4	154.52 ± 2.4	156.37 ± 2.4

C1CCOCC1 [tetrahydropyran] + Cc1ccccc1
molar heat capacity at constant pressure [J/K/mol]
Conditions	298.15 K	303.15 K	308.15 K
x1 = 0.0937	157 ± 2.4	158.5 ± 2.5	160.08 ± 2.5
x1 = 0.1369	156.86 ± 2.4	158.39 ± 2.5	159.99 ± 2.5
x1 = 0.1932	156.64 ± 2.4	158.18 ± 2.5	159.81 ± 2.5
x1 = 0.2308	156.46 ± 2.4	158.01 ± 2.5	159.65 ± 2.5
x1 = 0.2894	156.15 ± 2.4	157.71 ± 2.4	159.37 ± 2.5
x1 = 0.3187	155.98 ± 2.4	157.54 ± 2.4	159.22 ± 2.5
x1 = 0.3507	155.79 ± 2.4	157.35 ± 2.4	159.04 ± 2.5
x1 = 0.3916	155.52 ± 2.4	157.09 ± 2.4	158.79 ± 2.5
x1 = 0.4206	155.32 ± 2.4	156.9 ± 2.4	158.61 ± 2.5
x1 = 0.4618	155.02 ± 2.4	156.61 ± 2.4	158.34 ± 2.5
x1 = 0.4906	154.81 ± 2.4	156.4 ± 2.4	158.14 ± 2.5
x1 = 0.5137	154.63 ± 2.4	156.23 ± 2.4	157.98 ± 2.5
x1 = 0.5517	154.32 ± 2.4	155.94 ± 2.4	157.71 ± 2.4
x1 = 0.5907	154 ± 2.4	155.62 ± 2.4	157.42 ± 2.4
x1 = 0.6208	153.74 ± 2.4	155.38 ± 2.4	157.19 ± 2.4
x1 = 0.6623	153.37 ± 2.4	155.02 ± 2.4	156.86 ± 2.4
x1 = 0.6987	153.03 ± 2.4	154.69 ± 2.4	156.55 ± 2.4
x1 = 0.7135	152.89 ± 2.4	154.56 ± 2.4	156.42 ± 2.4
x1 = 0.751	152.52 ± 2.4	154.2 ± 2.4	156.08 ± 2.4
x1 = 0.7917	152.1 ± 2.4	153.79 ± 2.4	155.68 ± 2.4
x1 = 0.8246	151.75 ± 2.4	153.44 ± 2.4	155.34 ± 2.4
x1 = 0.8516	151.45 ± 2.4	153.14 ± 2.4	155.05 ± 2.4
x1 = 0.8914	150.99 ± 2.3	152.67 ± 2.4	154.58 ± 2.4
x1 = 0.9123	150.74 ± 2.3	152.41 ± 2.4	154.32 ± 2.4

C1CCOCC1 [tetrahydropyran] + c1ccccc1
molar heat capacity at constant pressure [J/K/mol]
Conditions	298.15 K	303.15 K	308.15 K
x1 = 0.0859	136.89 ± 2.1	138.21 ± 2.1	139.54 ± 2.2
x1 = 0.1279	137.71 ± 2.1	139.06 ± 2.1	140.44 ± 2.2
x1 = 0.1598	138.32 ± 2.1	139.7 ± 2.2	141.1 ± 2.2
x1 = 0.1982	139.05 ± 2.1	140.45 ± 2.2	141.88 ± 2.2
x1 = 0.2254	139.56 ± 2.2	140.97 ± 2.2	142.43 ± 2.2
x1 = 0.2657	140.3 ± 2.2	141.72 ± 2.2	143.21 ± 2.2
x1 = 0.3017	140.94 ± 2.2	142.38 ± 2.2	143.89 ± 2.2
x1 = 0.3509	141.8 ± 2.2	143.26 ± 2.2	144.8 ± 2.2
x1 = 0.3898	142.45 ± 2.2	143.93 ± 2.2	145.5 ± 2.2
x1 = 0.4176	142.91 ± 2.2	144.39 ± 2.2	145.99 ± 2.3
x1 = 0.4428	143.31 ± 2.2	144.81 ± 2.2	146.42 ± 2.3
x1 = 0.4987	144.17 ± 2.2	145.7 ± 2.3	147.36 ± 2.3
x1 = 0.5234	144.54 ± 2.2	146.08 ± 2.3	147.76 ± 2.3
x1 = 0.5592	145.05 ± 2.2	146.61 ± 2.3	148.32 ± 2.3
x1 = 0.5983	145.58 ± 2.3	147.17 ± 2.3	148.91 ± 2.3
x1 = 0.6132	145.78 ± 2.3	147.37 ± 2.3	149.13 ± 2.3
x1 = 0.6478	146.23 ± 2.3	147.84 ± 2.3	149.63 ± 2.3
x1 = 0.6876	146.71 ± 2.3	148.35 ± 2.3	150.17 ± 2.3
x1 = 0.7231	147.12 ± 2.3	148.78 ± 2.3	150.63 ± 2.3
x1 = 0.7623	147.55 ± 2.3	149.22 ± 2.3	151.1 ± 2.3
x1 = 0.7905	147.85 ± 2.3	149.53 ± 2.3	151.42 ± 2.4
x1 = 0.8217	148.15 ± 2.3	149.84 ± 2.3	151.75 ± 2.4
x1 = 0.8507	148.43 ± 2.3	150.12 ± 2.3	152.04 ± 2.4
x1 = 0.9003	148.86 ± 2.3	150.54 ± 2.3	152.47 ± 2.4
